What was measured:
[1] = test system: Bacillus subtilis BKM B-501; assay: Antibacterial activity, serial dilutions in liquid MH medium; type: cell-based; details: MH medium, 20 h, 37° C., 100% growth inhibition
Method in brief: (§1)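 Broth microdilution in Mueller-Hinton medium at 37 °C with stirring, using exponential-phase cultures seeded at 5×10^4 to 1×10^5 cells/mL with twofold serial compound dilutions. Growth inhibition read as A595 after 20 h, corrected for compound absorbance; MIC and MBC determined.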

[2] = test system: Enterococcus faecalis BKM B-871; assay: as above; type: cell-based; details: MH medium, 20 h, 37° C., 100% growth inhibition
Method in brief: as §1

[3] = test system: Micrococcus luteus BKM Ac-2230; assay: as above; type: cell-based
Method in brief: as §1

[4] = test system: Herpes Simplex Virus type 2 strain G (No. VR-734 ATCC); assay: Antiviral activity, virus cytopathogenic action in Vero cells; type: cell-based; set-up: key: 0: CPA (cytopathogenic action) is not detected; 1: up to 25% virus-infected monolayer; from 25% to 50%; 3: from 50% to 75%; 4: from 75% to 100%; details: 48 hours
Description: […] used in the study were used Herpes Simplex Virus type 1 (the Collection of Microorganisms at the Scientific Research Institute of Virology, strain EC), Herpes Simplex Virus type 2 strain G (No. VR-734 ATCC), and human cytomegalovirus strain AD169 (No. VR-538 ATCC). Herpes Simplex viruses type 1 and type 2 were cultured in Vero cells. The cells were incubated in MEM Eagle growth medium (MEM, BioloT, St-Petersburg, 1.3.3) supplemented with 10% fetal bovine serum (BioloT, St-Petersburg, 1.3.12) in Sanyo MCO-15AC gas-flow thermostat (37° C., 5% CO2) (Tokyo, Japan). A seed dose was 2×10^5 cells/ml in the starting inoculum or 2×10^4 cells/well. Herpes Simplex viruses were cultured under the same conditions in the MEM medium without serum (maintenance medium). Starting viral titers were 10^7 TCID50/ml.
For DMSO-soluble preparations, stock solutions were prepared in a concentration of 10 mM in DMSO. For water-soluble preparations, a stock solution prepared had the same concentration in the MEM medium (Minimal Essential Medium) for cell cultures. To control cytotoxicity (see below), the stock solution was diluted in the medium to a concentration of 100 μM and ten-fold serial dilutions of the preparations were made in the MEM medium (for DMSO-soluble compounds—in the MEM medium comprising 3% DMSO). The following concentrations of the preparations were used in the study of […]: if toxicity was not found, the concentrations of 100 μM preparations were 100, 10 and 1 μM; if toxicity was detected, the concentrations of 100 μM preparations were 10, 1, and 0.1 μM. Acyclovir (10 μg/ml) was used for Herpes Simplex viruses of both types as a reference preparation to control the viral model validity.
To study antiviral activity, plate wells with a cell monolayer were added with the preparations in an amount of 0.1 ml/well. To compensate a reduction in the concentration of the preparations, which takes place in the following addition of viruses, twofold concentrations of compounds (i.e. 200, 20 and 2 or 20, 2 and 0.2 μM for […] concentrations of 100 μM preparations, respectively) were used, incubated for an hour and then were infected with the examined 0.1 ml/well viruses in doses 1, 10 and 100 TCID50 (50% tissue infectious dose).
The virus-specific cytogenic action was manifested in an increase in the size of cells, their rounding, and detachment from a substrate. These morphological characteristics served as their marked difference from the cells subjected to a toxic action of high concentrations of the examined preparations. The latter acquired spindle-like shape, lost contacts with neighboring cells of the monolayer, and their boundaries became more distinct.
Intensity of the virus-specific changes in the cells were semi-quantified using a 4-score system: 0—CPA (cytopathogenic action) is not detected; 1—up to 25% virus-infected monolayer; 2—from 25% to 50%; 3—from 50% to 75%; and 4—from 75% to 100%. The antiviral activity of a compound was evaluated according to their ability to reduce the manifestation of cytopathogenic action in the plate wells compared to the control values. Differences with the control values by 1 score and more were considered to be significant.

[5] = Water solubility

## 6,7-bis-[(Dimethyl Ester N^α-L-Seryl)-L-glutamyl]-Protohemin (IX)
[1]
  MIC: 50 µM
[2]
  MIC: 50 µM
[3]; MH medium, 20 h, 37° C., 100% growth inhibition
  MIC: 12.5 µM
[3]; no colonies on agarized MH medium
  MBC: 25 µM
[4]; HSV-2, virus dose 1, concentration 0.1 μM
  manifestation of the virus CPA: 1 (up to 25% virus-infected monolayer)
[4]; HSV-2, virus dose 1, concentration 1 μM
  manifestation of the virus CPA: 1 (up to 25% virus-infected monolayer)
[4]; HSV-2, virus dose 1, concentration 10 μM
  manifestation of the virus CPA: 0^1
[4]; HSV-2, virus dose 10, concentration 0.1 μM
  manifestation of the virus CPA: 2 (from 25% to 50%)
[4]; HSV-2, virus dose 10, concentration 1 μM
  manifestation of the virus CPA: 2 (from 25% to 50%)
[4]; HSV-2, virus dose 10, concentration 10 μM
  manifestation of the virus CPA: 1.5 scores
[4]; HSV-2, virus dose 100, concentration 0.1 μM
  manifestation of the virus CPA: 3 (from 50% to 75%)
[4]; HSV-2, virus dose 100, concentration 1 μM
  manifestation of the virus CPA: 3 (from 50% to 75%)
[4]; HSV-2, virus dose 100, concentration 10 μM
  manifestation of the virus CPA: 3 (from 50% to 75%)
[5]
  water solubility: water-soluble
